Measured values reported in ChEMBL document CHEMBL3507680, “University of Dundee, Gates Library screen for HepG2 cell viability”.

Test: Human HepG2 cell viability assay in 384 well format
Format: toxicity, cell-based
Parameters: dose 125 nL, time 70.5 hour; concentration not given beside the values
Conditions: HepG2 cells, read-out: Inhibition

Structure (SMILES) | cytotoxicity at 70.5 h [%]
CCNC(=O)CN1CCOC(c2ccccc2C(F)(F)F)C1 (centres undefined) | 0.292
CCOCCOCc1cccc(CNc2cncc(-n3cccn3)n2)c1 | -2.12
COc1ncccc1CNCc1c(C(C)C)nn(C)c1Cl | -5.22
COc1ccccc1C(C)CNC(=O)c1c(C)nn(C)c1OC (centres undefined) | -3.39
COc1ncccc1CNCc1c(C(C)C)nn(C)c1N(C)C | -1.75
COc1ccc(NC(=O)N(C)Cc2ccc(Br)o2)cn1 | -6.19
CCN(CC)C(=O)c1ccc(COc2ccccc2C#N)o1 | -9.63
Cn1ccnc1COc1ccc(NC(=O)C2CCCO2)cc1 (centres undefined) | 3.57
Cc1cccc(-c2ccc(C(=O)NCCN3CCOCC3)c(=O)[nH]2)c1 | -6.01
N#CCCN(CCC#N)C(=O)c1ccc(COc2ccccc2C#N)o1 | 6.22
O=C(NCCCN1CCOCC1)c1ccc(-c2ccccc2)[nH]c1=O | -5.86
CCSCCC(=O)NCCn1nc2ccccn2c1=O | -7.12
COc1ccccc1N1CCC(CNC(=O)CN2CSCC2=O)C1 (centres undefined) | -7.92
CN(Cc1cccs1)C(=O)c1ccc(N2CCOCC2)c(F)c1 | 12.4
O=C(CN1CCCCCC1=O)NCC1CCN(c2ccccc2)C1 (centres undefined) | -5.56
COc1cc(NC(=O)NCCO)ccc1N1CCOC1=O | -6.58
COc1cc(NC(=O)NC(C2CC2)C2CC2)ccc1N1CCOC1=O | -18
COc1ncccc1CNCc1c(C(C)C)nn(C)c1OC | -4.91
CN(Cc1ccc2c(c1)OCO2)C(=O)c1ccn(C)c(=O)c1 | -10.8
COc1c(CNCc2ccc(CN3CCOCC3)cc2)c(C)nn1C | 5.61
COc1c(CNCc2cccnc2OC(C)C)c(C(C)C)nn1C | -8.38
Cc1ccsc1CN(C)C(=O)c1ccc(N2CCOCC2)c(F)c1 | -7.5
COC(=O)NCCC(=O)NCC1(c2cccc(Cl)c2)CC1 | -6.53
O=C(CCc1ccncc1)Nc1ccc(OCC2CCOCC2)cc1 | -13.6

Structure (SMILES) | cytotoxicity at 70.5 h [%]
COC(=O)NCCCC(=O)NC1(c2cccc(Cl)c2)CC1 | -6.46
CN(Cc1cc(=O)c(O)co1)C1CCN(c2ccc(F)cc2)CC1 | 22.1
CNS(=O)(=O)CC1CCCN1C(=O)c1ccc2cc[nH]c2c1 (centres undefined) | -7.71
COC(=O)Cc1cccc(NC(=O)Cc2cc(C)[nH]n2)c1 | 21.3
Cc1cc(=O)n(C)cc1NC(=O)CC1CCC1 | -2.84
O=C(CCc1ccncc1)Nc1ccc(OCC2CC2)cc1 | -11.9
CCc1nc(C(=O)N2CCN(Cc3ccc(Cl)cc3)CC2)c[nH]1 | -2.01
CC(C)C(=O)N1CCC(NC2CCSCC2)C1 (centres undefined) | -4.83
CCc1nc(C(=O)N2CCN(C(=O)CCc3ccccc3)CC2)c[nH]1 | -6.61
CCc1nnc2n1CC(CNCC1CCCC1)CC2 (centres undefined) | -1.75
Cc1cc(C)c(CNC(=O)C2COc3ccccc3C2)c(=O)[nH]1 (centres undefined) | 0.458
Cc1n[nH]c(C)c1NC(=O)Nc1cccnc1N1CCCC1 | 12.8
Cc1cc(C)c(CNC(=O)NC2COc3ccccc3C2)c(=O)[nH]1 (centres undefined) | -8.39
Cc1cc(C)c(CNC(=O)NCC2Cc3ccccc32)c(=O)[nH]1 (centres undefined) | -12
Cc1cc(C)c(CNC(=O)NCC2COc3ccccc3C2)c(=O)[nH]1 (centres undefined) | -10.2
O=S1(=O)N=C(CSCc2ccccc2)Nc2ccccc21 | -3.64
Cn1nc2c(cc1=O)CN(c1ncnc3ccsc13)CC2 | 3.58
Cc1nnc(C(NS(=O)(=O)c2cc(C)c(F)cc2F)C(C)C)[nH]1 (centres undefined) | -6.79
Cc1ccc(NC(=O)CN2CCC(OCC3CCCO3)CC2)c(C)c1 (centres undefined) | 5.15
CNC(=O)CN1CCC(OCC2CCCO2)CC1 (centres undefined) | -8.23
CS(=O)(=O)Cc1cc(F)ccc1NCc1nnsc1Cl | 12.3
COc1cc(CNc2cc(-c3nncn3C)ccn2)cc(OC)c1OC | -3.3
CCN1CCC(NC(=O)NCC(O)c2ccc(Cl)c(F)c2)CC1 (centres undefined) | 6.86
O=C(NCC(O)c1ccc(Cl)c(F)c1)NC1CC=CC1 (centres undefined) | -3.83

Structure (SMILES) | cytotoxicity at 70.5 h [%]
CC(=O)N1CCN(c2ccnc3c(F)cc(Br)cc23)CC1 | -1.55
COc1cccc(CN(C)Cn2nc(C(C)(C)C)ccc2=O)c1 | 2.69
CN(Cc1cccc(C#N)c1)Cn1nc(C(C)(C)C)ccc1=O | -0.146
CSCC(=O)N(C)Cc1ccc(N(C)C)cc1 | -6.63
CC(C)(C)c1nnc(CN(Cc2cccs2)CC2CCCO2)o1 (centres undefined) | -1.38
CCOCC1CCN(C(=O)Nc2ccc3c(c2)CCCO3)C1 (centres undefined) | 17.3
CCCc1nnc(NC(=O)N2CCCC2c2ccncc2)s1 (centres undefined) | 18.5
O=C(NCCNC(=O)c1ccc(Br)cc1)c1ccc(O)cc1 | -11
N#Cc1cccnc1NCc1ccc(S(=O)(=O)NC2CC2)cc1 | -17.8
N#Cc1cccnc1NCc1ccc(S(=O)(=O)NCC2CCCO2)cc1 (centres undefined) | 14
CC(C)N(Cc1ccc(C#N)cc1)Cc1nnsc1Cl | -15.5
COc1cc2c(cc1OC)S(=O)(=O)N(Cc1cccc(C)c1)C2=O | -11.2
CC(O)CN(c1ccccc1)S(=O)(=O)c1cc(C(=O)O)cc2c1CCC2 (centres undefined) | -7.68
CCNC(=O)NC(=O)C(C)N1CCCc2cc(OC)ccc2C1 (centres undefined) | -10.4
CCNC(=O)C1CCCN(C(=O)Nc2ccc3c(c2)CCCN3C)C1 (centres undefined) | -9.82
COc1cc2c(cc1OC)S(=O)(=O)N(Cc1ccccc1C)C2=O | 23.7
CC(C)Oc1ccc(CNC(=O)c2cc(C(N)=O)cs2)cc1F | -12.2
CC(C)NC(=O)CNC(=O)OC(C)(C)C | -13
CCc1ncncc1C(=O)Nc1ccc2ccn(CCN(C)C)c2c1 | -9.77
Cc1ncccc1C(=O)Nc1ccc2ccn(CCN(C)C)c2c1 | -4.81
O=C(NCCNc1ccc(Br)cn1)c1ccc(O)cc1 | -6.46
O=C(c1ccncc1)N1CCN(C(=O)c2coc3ccccc23)CC1 | -11
CC(C)C[C@H](NC(=O)CNC(=O)OC(C)(C)C)C(=O)OC(C)(C)C | -0.919
OCC(O)CSCc1nnc(-c2cccc(F)c2)o1 (centres undefined) | -14.7

Structure (SMILES) | cytotoxicity at 70.5 h [%]
CCS(=O)(=O)CC(C)N(C)C(=O)NCCc1cccc(F)c1F (centres undefined) | -5.89
N#Cc1cccnc1NCc1cccc(C(=O)NCC2CCCCO2)c1 (centres undefined) | -10.4
COC(=O)C(C)N1CCCc2cc(OC)ccc2C1 (centres undefined) | -4.67
O=C(NCCNc1cncc(Br)c1)c1ccc(O)cc1 | -8.4
O=C(NCCc1cccs1)N1CCCC1CCCO (centres undefined) | -9.42
CCCc1nn(C2CCN(C(C)C)C2=O)c(=O)o1 (centres undefined) | -1.04
COc1cccc(CNc2nc(C)cc(C)n2)c1OC | -2.87
CC(NC(=O)Cn1cc(C(N)=O)c(-c2ccccc2)n1)C1CC1 (centres undefined) | -10
CCCN(C(=O)c1cnns1)C1CCCN(Cc2ccccc2)C1 (centres undefined) | -7.29
CCOc1ccccc1C(CC(=O)N(C)C)NC(C)=O (centres undefined) | -0.953
CCOc1ccccc1C(CC(=O)N(C)c1ccccc1)NC(C)=O (centres undefined) | 15.9
Cn1cnc2c1CCN(CCOc1ccc3c(c1)CCC(=O)N3)C2 | -12.1
O=C(Nc1ccc(CCN2CCSCC2)cc1)NC1CC1 | -11.9
CN1CCOC(CNCc2c(Cl)nc3ccccn23)C1 (centres undefined) | -19.2
Cc1cc(C)n(C2CN(CC(=O)NCc3ccccn3)C2)n1 | -16.2
O=C(CCc1nc(C2CC2)no1)c1ccc2c(c1)OCCO2 | -16.9
CC(C(=O)Nc1cc(F)ccc1F)N1CCN(Cc2ncc[nH]2)CC1 (centres undefined) | 42.5
O=C(COc1ccccc1NCc1ccc(F)cc1)N1CCOCC1 | -20.5
COc1ccc(C(=O)CCc2nc(C3CC3)no2)cc1F | -13.6
NC(=O)c1ccc(OCC(=O)N2CCCC2c2ccc[nH]2)cc1 (centres undefined) | 42.3
O=C(Cn1ncc2ccccc21)Nc1ccnn1CC1CCOC1 (centres undefined) | -23.1
O=C1NC(c2cnc(C3CCC3)s2)Nc2ccccc21 (centres undefined) | -9.55
Cc1cc(NC(=O)NCC2(O)CCCC2)ccn1 | -14
CN(Cc1cnccn1)S(=O)(=O)c1ccc(C(F)(F)F)nc1 | 36.5

Structure (SMILES) | cytotoxicity at 70.5 h [%]
CC(C)c1noc(CCNC(=O)N2CCSC(C(C)C)C2)n1 (centres undefined) | -3.03
Cc1nnnn1-c1cc(NCc2cc(C#N)ccc2F)ccc1F | -10.8
COC(=O)CCN(C)Cc1cc(Br)cs1 | -21.1
CC(C)c1noc(CCC(=O)N2CCSCC2)n1 | -18.8
CCN(C(C)=O)C(c1ccc(Cl)cc1)c1ccccn1 (centres undefined) | -14.6
COCCC1(CNC(=O)Nc2ccnc(C)c2)CCCC1 | -20.4
CC1CN(C)CCN1Cc1cccc(C(=O)NCc2ccco2)c1 (centres undefined) | 27.4
Cc1ccc(N2CCCC(N3CCC(CO)CC3)C2=O)cc1 (centres undefined) | 12.9
CCCN1CCC(C(=O)NCCN(CC)c2ccccc2C)CC1 | 17.6
Cn1ncc2cnn(CC(O)COc3cccc4[nH]ccc34)c2c1=O (centres undefined) | 39.5
O=C(NCCCOCC1CC1)Nc1ccc(F)cc1 | 0.857
COc1ccc(C)cc1NC(=O)CNc1ccn(CC(N)=O)n1 | -9.21
CS(=O)(=O)N1CCN(C(=O)c2[nH]c3ccc(Cl)cc3c2Cl)CC1 | -6.15
COc1cc(Cl)c(C)cc1NC(=O)CNc1ccn(CC(N)=O)n1 | -7.27
CC(=O)N1CCN(C(=O)C(C)Nc2ccc3ncsc3c2)CC1 (centres undefined) | 0.285
CNC(=O)NC(=O)COc1c(C(C)=O)ccc(Cl)c1Cl | -9.38
CC(=O)c1ccc(Cl)c(Cl)c1OCC(=O)NC(C)C | -6.15
CNC(=O)COc1c(C(C)=O)ccc(Cl)c1Cl | -8.98
CC(=O)c1cccc(NC(=O)NCCOCC2CC2)c1 | -6.67
O=C(NCc1ccco1)c1cccc(CN2CCCC2CO)c1 (centres undefined) | -8.88
CC(C)c1nn(C)c(Cl)c1CNCc1cccnc1N(C)C | -9.54
CC(C)c1noc(CN2CCC(C3CCCCCN3S(C)(=O)=O)CC2)n1 (centres undefined) | 11
CC(=O)N1CCCCCC1C1CCN(Cc2nc(C(C)C)no2)CC1 (centres undefined) | 0.62
